What all share (type): cell-based
Assay [1] concerns human adipocyte cells. Kind of assay: Cytotoxicity assay: metabolic activity (resazurin conversion) of human adipocytes. The protocol: (§1) HWP were obtained in passage two and differentiated in vitro to mature adipocytes. Briefly, cells were initially cultured in preadipocyte growth medium at 37° C. and 5% CO2 to 70-80% confluency. Then, cells were seeded at 40,000 cells/ml into 96-well flat bottom tissue culture plates and incubated overnight to allow attachment. Differentiation was initiated by changing the medium to preadipopcyte differentiation medium for an additional 72 hrs. After differentiation was induced, the medium was replaced by adipocyte nutrition medium that was refreshed every 2-3 days over a period of 14 days until termination of differentiation. Differentiation status was checked via nile red staining of control cells.
The test items 1 to 8 were prepared according to Table 1 to yield respective stock solutions. Said stock solutions were further diluted in assay media to obtain the double concentrated working solutions, which were subsequently diluted 1:2 in the final assay. […] Deoxycholate Na was selected as “reference compound”.
(§2) For the cytotoxicity assays in this study pre-adipocytes were seeded at 40,000 cells/ml into a 96-well microtiter flat bottom plate. The test items were prepared in separate plates starting with the double concentrated maximal test concentration followed by a 1:2 serial dilution (Chloroquine and Fluoxetine 1:3) and then added to the cells. The test items were tested at 6 replicates/concentration. Each plate included negative controls (media plus solvent, 6 replicates), a drug interference control (all concentrations, duplicates), a background control (14 replicates), a positive (=cytotoxic) control (6 replicates doxorubicin, 1 μM final) and a positive control for maximal LDH-release (2 replicates, 2% Triton-x 100 final).
(§3) Relative cell viability was determined after 48 hrs exposure based on metabolic activity (i.e. resazurin conversion). Using a Victor^3 1420 Multilabel Counter, the resazurin conversion to the fluorescent resorufin by metabolically active cells was recorded at 560Ex/590Em. Membrane integrity was measured after 6 hrs and 48 hrs and the enzymatic activity of released LDH in the cell supernatant after 30 min of incubation at 492 nmabsorption/690 nmreference by a spectrophotometer. The volume withdrawn from the cultures for the LDH-assay was not replaced to keep cells in a less disturbed environment. The assay was conducted in a multiplexed format.
In order to derive meaningful IC50 values from the primary data, the entire biological window of activity ranging from 0% to 100% viability should be covered and the resolution has to be sufficient. To improve data quality, the serial dilution factor used in previous experiments was reduced to a 1:2 and 1:3 dilution. […] IC50 (half maximal inhibitory concentration, calculated via Sigma Plot 10) values were determined for each test substance 1 to 8.
(§4) The effects on cytotoxicity in human adipocyte cells of a further 9 compounds were tested. The experimental set-up was identical to the one in example 1.

Assay [2] has as its system human adipocyte cells. Briefly: Membrane integrity: LDH release from human adipocytes (LDH assay). As to conditions: for Rel. max. LDH release [%] 48 hrs: Example 1, 48 hrs, relative to Triton-x 100 maximal LDH release; for IC50: read-out: IC50 48 hrs LDH. The protocol:
as §1, §2, §3
For the dose-response relationship, absolute absorption (OD treated wells−background) was plotted against the test item concentrations representing LDH leakage from the cells. For a better estimation of the test items' potential influencing the membrane integrity, relative, maximal LDH release in percent (see Table 2) was also calculated according to the following formula: […]
as §4
(LDH leaks from cells whose membrane has failed.)

For the next assay, the system named is Human white adipocytes. Briefly: Apoptosis/necrosis detection, Annexin V-FITC/PI flow cytometry. As to conditions: for apoptosis/necrosis induction in human adipocytes (in words): 5, 24, 48 hrs, concentrations as in Table 4. The text has this:
The apoptotic program is characterized by certain morphologic features. Loss of plasma membrane asymmetry is a well established indicator for apoptotic cells. In apoptotic cells, the membrane phospholipid phosphatidylserine (PS) is translocated from the inner to the outer leaflet of the plasma membrane, thereby exposing PS to the external environment. In general, this PS translocation is preceded by caspase activation. Annexin V labelled with FITC is a Ca^2+ dependent phospholipid-binding protein with high affinity for PS and binds to cells with externalized PS. Cells stained with Annexin V*FITC are therefore considered in an early apoptotic stage.
Staining with Annexin V-FITC is typically used in conjunction with a vital dye such as propidium iodide (PI) to allow discrimination between early apoptotic and necrotic cells. Necrotic dying cells are PI positive only. Cells that are viable are Annexin V and PI negative; cells that entered apoptosis are Annexin V positive and PI negative and cells that are in post apoptotic and/or necrotic phase are both Annexin V and PI positive.
Human white adipocytes that had been differentiated in vitro from pre-adipocytes as describe above were used. Measurements were performed after 5 hrs to catch early apoptotic/necrotic events and after 24 hrs and 48 hrs for later stages. Naringenin at 500 μM (reported to induce apoptosis in adipocytes) was used as positive control and media plus solvent was used as negative control. Each compound was tested in three different concentrations. […] Two more concentrations, one below and one above the IC50 were added.
Flow cytometry was performed with a dual laser FC500. After completion of the staining procedure, tubes were grouped into a FC500 carousel for semi-automated data acquisition. Cells were first acquired in “Setup” mode to tune the parameters FS, SS, FL1 and FL2. After completion of the setup, baseline compensation was switched on and cells were acquired. Cells were acquired without life-gate but using FS threshold to exclude debris. All cells were acquired using individually corrected settings.
After completion of data acquisition, analysis was done using the CXP software. If necessary, software-based post acquisition compensation was performed to fine-correct for fluorescence overlap not adjusted for during the acquisition phase. Quadrant markers were set based on the negative controls.
In general terms: In flow cytometry, cells or beads pass a laser one at a time.

[3] abbreviates: read-out: IC50 (metabolic activity after 48 hrs), Example 1, 48 hrs exposure, resazurin.
Where [4] appears, read: Homo sapiens, Adipocyte, read-out: IC50 (metabolic activity after 48 hrs), Example 1, 48 hrs exposure, resazurin.
Where [5] appears, read: Homo sapiens, Adipocyte, read-out: IC50 48 hrs Resazurin, Example 2, 48 hrs.
Where [6] appears, read: Homo sapiens, Adipocyte, Example 2, 48 hrs.

Structures are written as SMILES. Counter-ions that a name gives are not always drawn.

With `COc1ccc([C@@H]2Sc3ccccc3N(CCN(C)C)C(=O)[C@@H]2OC(C)=O)cc1.Cl` [Test substance 6, Diltiazem HCl], the concentration for half-maximal inhibition (IC50) with human adipocyte cells [1] (setting [3]) turned out to be 800 µM. The “Rel. max. LDH release [%] 48 hrs” value in the assay with human adipocyte cells [2] is on record as 94.5%.

Regarding `C[C@H](CCC(=O)[O-])[C@H]1CC[C@H]2[C@@H]3CC[C@@H]4C[C@H](O)CC[C@]4(C)[C@H]3C[C@H](O)[C@]12C.[Na+]` [Test substance 8, Deoxycholate Na], the IC50 in the assay with human adipocyte cells [1] (read-out: IC50 48 hrs Resazurin, Example 2, 48 hrs, listed as Deoxycholate) is ~616 µM; with human adipocyte cells [1] (read-out: IC50 48 hrs Resazurin, Example 2, 48 hrs, listed as deoxycholate), 616 µM; with human adipocyte cells [1] (setting [3]), 446 µM; with human adipocyte cells [2] (Example 2, 48 hrs), ~379 µM. Further, in the assay on human adipocyte cells [2], the “Rel. max. LDH release [%] 48 hrs” value was 98.0%.

Consider `CC(CCc1ccccc1)NCC(O)c1ccc(O)c(C(N)=O)c1` (centres unmarked) [Test substance 7, Labetalol HCl], for which, in the assay on human adipocyte cells [1] (setting [4]), the IC50 is 659 µM. Further, the “Rel. max. LDH release [%] 48 hrs” value in the assay on human adipocyte cells [2] worked out at 101.1%.

With `O=C1C[C@@H](c2ccc(O)cc2)Oc2cc(O)cc(O)c21` [Naringenin], in the assay on Human white adipocytes (500 μM, 5 hrs), the “Early Apoptosis [A-V*/PI*]” value was 16, the “Necrosis/ Late Apoptosis [A-V*/PI*]” value was 0.8 and the “Normal [A-V*/PI]” value stood at 83.2. Besides, in the assay with Human white adipocytes (500 μM, 24 hrs), the “Early Apoptosis [A-V*/PI*]” value is 14.1, the “Necrosis/ Late Apoptosis [A-V*/PI*]” value came to 4.1 and the “Normal [A-V*/PI]” value amounted to 81.8. Also, in the assay on Human white adipocytes (500 μM, 48 hrs), the “Early Apoptosis [A-V*/PI*]” value is 12.1, the “Necrosis/ Late Apoptosis [A-V*/PI*]” value came out at 5.7 and the “Normal [A-V*/PI]” value was determined as 81.2. In the assay on Human white adipocytes, the “apoptosis/necrosis induction in human adipocytes (in words)” value was “small but clear increase in apoptotic/necrotic adipocytes over time”.

With `CN(C)CCC[C@@]1(c2ccc(F)cc2)OCc2cc(C#N)ccc21` [Test substance 3, Escitalopram oxalate], the IC50 in the assay on human adipocyte cells [1] (setting [4]) came out at 491 µM. Also, the “Rel. max. LDH release [%] 48 hrs” value in the assay on human adipocyte cells [2] is recorded as 88.0%.

`OCCN1CCN(CCCN2c3ccccc3Sc3ccc(Cl)cc32)CC1` [Perphenazine]: the IC50 was 25 µM in the assay with human adipocyte cells [1] (setting [5]) and ~20.3 µM in the assay on human adipocyte cells [2] (setting [6]).

As to `CN1CCN(CCCN2c3ccccc3Sc3ccc(C(F)(F)F)cc32)CC1` [Trifluoperazine], the 50% inhibitory concentration (IC50) was 17.4 µM in the assay on human adipocyte cells [1] (setting [5]) and ~14.3 µM with human adipocyte cells [2] (setting [6]).

Take `CN(C)CCCC1(c2ccc(F)cc2)OCc2cc(C#N)ccc21` (centres unmarked) [Test substance 2, Citalopram HBr]: the “Early Apoptosis [A-V*/PI*]” value in the assay on Human white adipocytes (250 μM, 5 hrs) was 21.5; in the assay on Human white adipocytes (250 μM, 24 hrs) it was 32.4; with Human white adipocytes (250 μM, 48 hrs), 23.1; with Human white adipocytes (350 μM, 5 hrs), 31.3; in the assay with Human white adipocytes (350 μM, 24 hrs) it was 57.6; with Human white adipocytes (350 μM, 48 hrs), 35.6. In addition, the “Early Apoptosis [A-V*/PI*]” value is recorded as 30.5 with Human white adipocytes (450 μM, 5 hrs); 26 in the assay with Human white adipocytes (450 μM, 24 hrs); 44.9 with Human white adipocytes (450 μM, 48 hrs). The “Necrosis/ Late Apoptosis [A-V*/PI*]” value was determined as 0.6 in the assay on Human white adipocytes (250 μM, 5 hrs); 2.2 in the assay on Human white adipocytes (250 μM, 24 hrs); 3.3 with Human white adipocytes (250 μM, 48 hrs); 1.5 in the assay on Human white adipocytes (350 μM, 5 hrs); 4.7 with Human white adipocytes (350 μM, 24 hrs); 10.7 with Human white adipocytes (350 μM, 48 hrs). In addition, the “Necrosis/ Late Apoptosis [A-V*/PI*]” value with Human white adipocytes (450 μM, 5 hrs) stood at 1.1; with Human white adipocytes (450 μM, 24 hrs), 23.9; with Human white adipocytes (450 μM, 48 hrs) it was 26. Further, the “Normal [A-V*/PI]” value in the assay with Human white adipocytes (250 μM, 5 hrs) was found to be 77.9; with Human white adipocytes (250 μM, 24 hrs), 65.4; with Human white adipocytes (250 μM, 48 hrs), 79.6; with Human white adipocytes (350 μM, 5 hrs), 67.2; with Human white adipocytes (350 μM, 24 hrs) it was 37.7; in the assay on Human white adipocytes (350 μM, 48 hrs), 53.7. In addition, the “Normal [A-V*/PI]” value was 68.4 in the assay with Human white adipocytes (450 μM, 5 hrs); 50.1 with Human white adipocytes (450 μM, 24 hrs); 29.1 in the assay with Human white adipocytes (450 μM, 48 hrs). Also, in the assay with Human white adipocytes, the “apoptosis/necrosis induction in human adipocytes (in words)” value is “clear apoptosis after 5 hrs with virtually no necrosis”. For the same compound, the half-maximal inhibitory concentration (IC50) in the assay on human adipocyte cells [1] (setting [4]) stood at 431 µM. Besides, the “Rel. max. LDH release [%] 48 hrs” value in the assay on human adipocyte cells [2] came out at 100.7%.

`COc1ccccc1OCCNCC(O)COc1cccc2[nH]c3ccccc3c12` (centres unmarked) [Carvedilol]: the IC50 in the assay on human adipocyte cells [1] (setting [5]) is 28.4 µM; in the assay on human adipocyte cells [2] (setting [6]), ~22.2 µM.

Consider `Clc1ccc(C(Cn2ccnc2)OCc2ccsc2Cl)c(Cl)c1` (centres unmarked) [Thioconazole], for which the IC50 with human adipocyte cells [1] (read-out: IC50 48 hrs Resazurin, Example 2, 48 hrs) is 10.5 µM; in the assay with human adipocyte cells [2] (Example 2, 48 hrs), ~7.4 µM.

Consider `Fc1ccc([C@@H]2CCNC[C@H]2COc2ccc3c(c2)OCO3)cc1` [Paroxetine], for which the IC50 is 39.3 µM in the assay with human adipocyte cells [1] (setting [5]) and ~31.2 µM in the assay with human adipocyte cells [2] (setting [6]).

Consider `CNCC[C@H](Oc1cccc2ccccc12)c1cccs1` [Duloxetine], for which the IC50 with human adipocyte cells [1] (Homo sapiens, Adipocyte, 48 h, read-out: IC50 48 hrs Resazurin) is 42.9 µM; in the assay with human adipocyte cells [2] (Homo sapiens, Adipocyte, 48 h), ~31.9 µM.

Consider `CCN(CC)CCCC(C)Nc1ccnc2cc(Cl)ccc12` (centres unmarked) [Test substance 1, Chloroquine], for which the IC50 with human adipocyte cells [1] (Homo sapiens, Adipocyte, 48 h, read-out: IC50 (metabolic activity after 48 hrs)) was determined as 599 µM. Besides, the “Rel. max. LDH release [%] 48 hrs” value in the assay on human adipocyte cells [2] was 101.8%.

As a reminder, the IC50 is the midpoint of a concentration-inhibition curve.

Values taken from patent US20130143869A1, “USE OF A CATIONIC AMPHIPHILIC DRUG FOR THE PREPARATION OF A FORMULATION FOR THE REDUCTION OF SUBCUTANEOUS ADIPOSE TISSUE” (Merz Pharma GmbH & CO. KGaA, priority 2010, published 2013).
